Like-named read-outs stand apart in the source and are kept apart here.
How the values were obtained:
tubulin [1] = assay: fluorescence-based tubulin polymerization assay; type: biochemical, Bos taurus; conditions: read-out: Anti-tubulin activity (IC50)
tubulin [2] = assay: fluorescence-based tubulin polymerization assay; type: biochemical, Bos taurus; conditions: read-out: Anti-tubulin activity (IC50); remark: listed apart in the source

| IC50 (tubulin [1]) | IC50 (tubulin [2]) | SMILES |
| --- | --- | --- |
| 2640 nM | – | COc1cccc(NC(=O)c2cccc3c2Nc2cccc(Cl)c2N3C)c1 [8a, 6-Chloro-N-(3-methoxyphenyl)-5-methyl-5,10-dihydrophenazine-1-carboxamide] |
| 2360 nM | – | CN1c2cccc(C(=O)Nc3cccnc3)c2Nc2cccc(Cl)c21 [8l, 6-Chloro-5-methyl-N-(pyridin-3-yl)-5,10-dihydrophenazine-1-carboxamide] |
